SMILES strings stand for the structures.

This test addresses T1, TRPML1 (Homo sapiens, UniProt Q9GZU1).
T1 construct: expressed in transfected cells; host or cells: HEK T-REx cells stably expressing GCaMP6f and TRPML1
Put plainly: Cellular TRPML1 assay (FLIPR, GCaMP6f calcium read-out). It counts as cell-based. Particulars: HEKT-REx/GCaMP6f/TRPML1 cells, FLIPR TETRA, kinetic response over 300 seconds; read-out: TRPML1 FLIPR pEC50 (converted). As to the method: Example A: Cellular TRPML1 Assay
The final clone for the TRPML1 assay is HEKT-REx/GCaMP6f/TRPML1. GCaMP6f is a genetically encoded calcium indicator that is stably expressed in this cell line and used as a fluorescent read-out.
Experiments were performed in 384 MTP format. Cells are seeded at 15000 cells/well in 20 μl/well of Optimem+0.5% FBS without selection antibiotics. Twenty-four hours later, cells are assayed for the response to various compounds using the Ca^2+ sensitive GCaMP6f protein stably expressed in the cells as readout.
The experiment was performed in a 384-well format according to the following procedures: • 24 h after seeding, the cells were pre-incubated at room temperature for about 10 min. • Started the experiment at the FLIPR^TETRA by injecting 10 μL/w of 3× concentrated test compounds and controls in Ca^2+ free Tyrode's buffer. Monitored the kinetic response over a period of 300 seconds. • Final DMSO concentration: 0.5%
Data from FLIPR^TETRA measurements were analyzed with the Genedata Screener© software.

T1 sequence (Q9GZU1 whole entry): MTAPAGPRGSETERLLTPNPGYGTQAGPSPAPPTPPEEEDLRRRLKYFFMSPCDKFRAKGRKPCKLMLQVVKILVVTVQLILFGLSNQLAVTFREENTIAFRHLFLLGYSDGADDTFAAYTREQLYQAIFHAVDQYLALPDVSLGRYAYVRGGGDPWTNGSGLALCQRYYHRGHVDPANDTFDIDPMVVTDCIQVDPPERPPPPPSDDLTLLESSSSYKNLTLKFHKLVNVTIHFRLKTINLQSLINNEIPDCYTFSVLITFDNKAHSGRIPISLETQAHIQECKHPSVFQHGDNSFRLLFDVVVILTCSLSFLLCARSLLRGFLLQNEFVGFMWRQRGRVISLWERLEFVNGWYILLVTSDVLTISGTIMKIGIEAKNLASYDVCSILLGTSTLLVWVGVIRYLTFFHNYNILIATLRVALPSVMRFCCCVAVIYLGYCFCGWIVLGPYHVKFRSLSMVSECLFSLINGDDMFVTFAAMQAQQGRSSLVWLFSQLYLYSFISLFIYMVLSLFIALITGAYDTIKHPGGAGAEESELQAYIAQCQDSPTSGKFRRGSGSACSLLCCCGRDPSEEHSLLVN

As to `O=C(Nc1ccc(OC2CC(F)(F)C2)c(F)c1)c1nc(N2CCCC2)oc1CC(F)(F)F` [Example 44, N-[4-(3,3-difluorocyclobutoxy)-3-fluorophenyl]-2-(pyrrolidin-1-yl)-5-(2,2,2-trifluoroethyl)oxazole-4-carboxamide], the EC50 was 1 to 10 µM.

Turning to `CC1(C)CC(Oc2ccc(NC(=O)c3nc(N4CCCC4)oc3CC(F)(F)F)cc2F)CO1` (stereo not drawn) [Example 45, N-{4-[(5,5-dimethyloxolan-3-yl)oxy]-3-fluorophenyl}-2-(pyrrolidin-1-yl)-5-(2,2,2-trifluoroethyl)oxazole-4-carboxamide], the EC50 was 1 to 10 µM.

Take `O=C(Nc1ccc(OC2CC3C(C2)C3(F)F)c(F)c1)c1nc(N2CCCC2)oc1CC(F)(F)F` (stereo not drawn) [Example 46, N-[4-({6,6-difluorobicyclo[3.1.0]hexan-3-yl}oxy)-3-fluorophenyl]-2-(pyrrolidin-1-yl)-5-(2,2,2-trifluoroethyl)oxazole-4-carboxamide]: the EC50 is 1 to 10 µM.

For `O=C(Nc1ccc(O[C@@H]2COCC2(F)F)c(F)c1)c1nc(N2CCCC2)oc1CC(F)(F)F` [Example 49, (R)—N-(4-((4,4-difluorotetrahydrofuran-3-yl)oxy)-3-fluorophenyl)-2-(pyrrolidin-1-yl)-5-(2,2,2-trifluoroethyl)oxazole-4-carboxamide], the EC50 is 1 to 10 µM.

Turning to `O=C(Nc1ccc(OC2CCC3CC32)c(F)c1)c1nc(N2CCCC2)oc1CC(F)(F)F` (stereo not drawn) [Example 51, N-(4-{bicyclo[3.1.0]hexan-2-yloxy}-3-fluorophenyl)-2-(pyrrolidin-1-yl)-5-(2,2,2-trifluoroethyl)oxazole-4-carboxamide], the EC50 is 1 to 10 µM.

Consider `O=C(Nc1ccc(OC2CCCC23CC3)c(F)c1)c1nc(N2CCCC2)oc1CC(F)(F)F` (stereo not drawn) [Example 52, N-(3-fluoro-4-(spiro[2.4]heptan-4-yloxy)phenyl)-2-(pyrrolidin-1-yl)-5-(2,2,2-trifluoroethyl)oxazole-4-carboxamide], for which the EC50 is 1 to 10 µM.

With `O=C(Nc1ccc(OCC2CCCC2(F)F)c(F)c1)c1nc(N2CCCC2)oc1CC(F)(F)F` (stereo not drawn) [Example 53, N-{4-[(2,2-difluorocyclopentyl)methoxy]-3-fluorophenyl}-2-(pyrrolidin-1-yl)-5-(2,2,2-trifluoroethyl)oxazole-4-carboxamide], the EC50 is 1 to 10 µM.

Consider `O=C(Nc1ccc(OC2CCOCC2)c(F)c1)c1nc(N2CCCC2)oc1CC(F)(F)F` [Example 56, N-[3-fluoro-4-(oxan-4-yloxy)phenyl]-2-(pyrrolidin-1-yl)-5-(2,2,2-trifluoroethyl)oxazole-4-carboxamide], for which the EC50 is 1 to 10 µM.

In the case of `O=C(Nc1ccc(OC2CCCC2)c(F)c1)c1nc(N2CCC3(CC3)C2)oc1CC(F)(F)F` [Example 57, N-(4-(cyclopentyloxy)-3-fluorophenyl)-2-(5-azaspiro[2.4]heptan-5-yl)-5-(2,2,2-trifluoroethyl)oxazole-4-carboxamide], the EC50 is 1 to 10 µM.

For `O=C(Nc1ccc(OCCC(F)(F)F)c(F)c1)c1nc(N2CCCC2)oc1CC(F)(F)F` [Example 58, N-(3-fluoro-4-(3,3,3-trifluoropropoxy)phenyl)-2-(pyrrolidin-1-yl)-5-(2,2,2-trifluoroethyl)oxazole-4-carboxamide], the EC50 was 1 to 10 µM.

With `CCC(C)Oc1ccc(NC(=O)c2nc(N3CCCC3)oc2CC(F)(F)F)cc1F` (stereo not drawn) [Example 59, N-(4-(sec-butoxy)-3-fluorophenyl)-2-(pyrrolidin-1-yl)-5-(2,2,2-trifluoroethyl)oxazole-4-carboxamide], the EC50 is 1 to 10 µM.

For the molecule `CC(CC(F)(F)F)Oc1ccc(NC(=O)c2nc(N3CCCC3)oc2CC(F)(F)F)cc1F` (stereo not drawn) [Example 60, N-(3-fluoro-4-((4,4,4-trifluorobutan-2-yl)oxy)phenyl)-2-(pyrrolidin-1-yl)-5-(2,2,2-trifluoroethyl) oxazole-4-carboxamide], the EC50 is 1 to 10 µM.

The values are drawn from patent US12098145B2 (Libra Therapeutics, Inc., priority 2022, dated 2024).
